{"source": "paper PMC8904451", "about": "“Novel chalcone-derived pyrazoles as potential therapeutic agents for the treatment of non-small cell lung cancer” (Scientific Reports, 2022)", "type_in_all_cases": "cell-based, human", "key": {"[1]": {"system": "caspase-3/7 in H226 cells", "test": "Caspase-3/7 activation by flow cytometry, H226", "conditions": "IC90", "description": "To explain the type of cell death that cancer cells undergo after treatment with PCH-1, the ability of the compound to activate caspases 3–7 was determined by flow cytometry. […] The most pronounced activation of caspase 3 occurred equally in A-549 and H226 cell lines after 48 h of treatment and was sevenfold greater than that in the vehicle.\nCells were seeded onto tissue culture plates and allowed to attach for 24 h. Next, the cells were treated with PCH-1 or Etoposide at IC90 concentration for 6, 24, and 48 h. After incubation, the cells were harvested by trypsinization, rinsed twice with PBS, and stained with Annexin V Alexa Fluor™ 488 conjugate (Thermo Fisher, #A13201) for apoptosis assay and with CellEvent™ Caspase-3/7 Green Flow Cytometry Assay Kit (Thermo Fisher, #C10427) for caspase-3/7 activation according to the manufacturer’s protocols. The analysis was performed with Guava EasyCyte 8 cell sorter (Merck Millipore) and FlowJo software v10. Each experiment was repeated independently three times."}, "A-549 cells": {"system": "A-549 cells", "test": "Western blot of apoptotic and EMT-related proteins", "description": "To investigate the potential molecular mechanisms responsible for PCH-1-induced apoptosis in A-549 cells, we measured the expression of apoptosis-related proteins by western blot analysis. […] Next, we determined the role of the antiapoptotic protein Bcl-2 as well as the proapoptotic proteins Bax and Bid in PCH-1-induced cell death in A-549 cells. […] Additionally, we observed Bid cleavage (48 h: *p < 0.01), which was noted as a reduction in full-length Bid protein.\nEpithelial-mesenchymal transition (EMT) plays a crucial role in tumorigenesis by promoting cell motility, migration, and metastasis. Thus, we examined the expression of proteins involved in the EMT process by western blot assays. […] The activity of N-cadherin in A-549 cells was reduced by 45% at 24 h (p = 0.0002) and by 50% at 48 h (p = 0.0002), while vimentin activity was reduced by 43% at 24 h (p = 0.005) and by 46% at 48 h (p = 0.004). Additional PCH-1 inhibited Transforming Growth Factor β1 (TGF-β1) induced mesenchymal-like phenotype in A-549 cells, indicating […] of N-cadherin by 66% at 48 h (p = 0.0003), and another EMT effector β-catenin, which was suppressed by 31% at 24 h (p = 0.0275) and by 66% at 48 h (p = 0.0019).\nCells (1.5 × 10^6) were cultured in tissue culture plates for overnight attachment. The cells were then incubated with IC90 of PCH-1 or 1% DMSO for 6, 24, and 48 h, or were co-treatment with 2.5 ng/ml TGF-β1 (Sigma-Aldrich), and IC90 of PCH-1 or 1% DMSO for 24, and 48 h. Subsequently, the cells were collected and lysed in Laemmli buffer with a protease inhibitor cocktail (Roche) and phosphatase inhibitors [NaF (5 mM), β-glycerophosphate (5 mM), and Na3VO4 (1 mM)]. The cells were then sonicated in triplicate (10 s, 30% amplitude) and centrifuged at 16,000×g at 12 °C for 15 min. Protein concentrations were determined using the DC Protein Assay Kit (Bio-Rad). For determining total protein content, the cellular extract was separated by 10% or 12% sodium dodecyl sulfate–polyacrylamide gel electrophoresis (SDS-PAGE) and transferred onto a microporous polyvinylidene difluoride (PVDF) membrane (Bio-Rad). After blocking with 5% (w/v) BSA (Sigma-Aldrich) in 1 × TBST (pH 7.4 and 0.1% Tween-20) for 1 h, the membranes were incubated overnight with primary antibodies at 4 °C, followed by horseradish peroxidase-conjugated secondary antibodies for 1 h. All the used antibodies are listed in Table S1 in the supplementary information. The immunoreactive signals were detected using an enhanced chemiluminescence (ECL) detection reagent kit (Thermo Fisher) and a ChemiDoc XRS + Imaging System (Bio-Rad). The band intensity was measured using Image Lab 5.2 software (Bio-Rad)."}, "[2]": {"system": "A-549, H226, and H460 cells", "test": "Annexin V/PI apoptosis assay by flow cytometry", "conditions": "48 h, IC90, depending on the cell line; vehicle approximately 5%", "description": "To examine whether the effect of PCH-1 on reducing the viability of lung cancer cells was the result of inducing apoptotic cell death, A-549, H226, and H460 cells were treated with the compound for 6, 24, and 48 h, and analyzed by Annexin V/propidium iodide (PI) double staining using flow cytometry (Fig. S1 in supplementary information). […] At 24 h of treatment with the compound, a slight increase in both early (Annexin V(+)/PI(−)) and late (Annexin V(+)/PI(+)) apoptotic fractions was observed. […] PI can enter only those cells with damaged plasma membrane, which enables to differentiate early apoptotic cells from late apoptotic and necrotic cells. Overall, biochemical changes involved in apoptotic cell death were prevailing, whereas necrotic changes were not observed. Furthermore, typical phenotypic features of cells undergoing apoptosis were visualized by fluorescent microscopy in Supplementary Fig. S2 and described in Supplementary Information.\nCells were seeded onto tissue culture plates and allowed to attach for 24 h. Next, the cells were treated with PCH-1 or Etoposide at IC90 concentration for 6, 24, and 48 h. […]"}, "[3]": {"system": "A-549, H226, and H460 cells", "test": "Colony formation assay", "conditions": "1, 5, 10 µM for 24 h, then 9 days culture", "description": "Cells were seeded onto 6-well plates (500 cells/well) and allowed to attach for 24 h in a fresh RPMI medium. Next, the cells were pretreated with DMSO (1%) solution of the examined compound (at the concentrations of 1, 5, and 10 µM) for 24 h. The medium containing compound was then changed, and the cells were cultured for additional 9 days. After incubation, the cells were washed twice with phosphate-buffered saline (PBS), fixed with 100% methanol for 30 min, and stained with 0.5% crystal violet for 15 min. The colonies were photographed and counted by ImageJ software."}, "[4]": {"conditions": "A-549 co-treated with 2.5 ng/ml TGF-β1, IC90, 48 h"}}}
{"smiles": "COc1ccc(C2CC(c3cc4c(cc3OC)OCO4)=NN2C(C)=O)cc1", "note": "(stereo not drawn) [PCH-1, 1-[3-(6-methoxy-2H-1,3-benzodioxol-5-yl)-5-(4-methoxyphenyl)-4,5-dihydro-1H-pyrazol-1-yl]ethan-1-one]", "values": [{"measurement": "caspase-3/7 activation, increase compared to control, H226", "setting": "[1]; 6 h", "result": 2.9, "unit": "fold"}, {"measurement": "activation of caspase 3 vs vehicle, H226", "setting": "[1]; 48 h", "result": "sevenfold"}, {"measurement": "cells with activated caspase 3/7 vs control, H226", "setting": "[1]; later exposure", "result": "> 4.7", "unit": "times"}, {"measurement": "Bcl-2 protein level", "setting": "A-549 cells; A-549, IC90", "result": "not changed"}, {"measurement": "Bax protein level", "setting": "A-549 cells; A-549, IC90, 6, 24, 48 h", "result": "significant increase"}, {"measurement": "expression of hTERT", "setting": "A-549 cells; A-549, IC90, 24 and 48 h", "result": "significantly decreased"}, {"measurement": "reduction of N-cadherin", "setting": "A-549 cells; A-549, IC90, 24 h", "result": 45, "unit": "%"}, {"measurement": "reduction of vimentin", "setting": "A-549 cells; A-549, IC90, 24 h", "result": 43, "unit": "%"}, {"measurement": "reduction of N-cadherin", "setting": "A-549 cells; A-549, IC90, 48 h", "result": 50, "unit": "%"}, {"measurement": "reduction of vimentin", "setting": "A-549 cells; A-549, IC90, 48 h", "result": 46, "unit": "%"}, {"measurement": "suppression of β-catenin, TGF-β1 induced", "setting": "A-549 cells; A-549 co-treated with 2.5 ng/ml TGF-β1, IC90, 24 h", "result": 31, "unit": "%"}, {"measurement": "reduction of N-cadherin, TGF-β1 induced", "setting": "A-549 cells; [4]", "result": 66, "unit": "%"}, {"measurement": "suppression of β-catenin, TGF-β1 induced", "setting": "A-549 cells; [4]", "result": 66, "unit": "%"}, {"measurement": "late apoptotic phase (Annexin V(+)/PI(+)) cells", "setting": "[2]", "result": "30–60%"}, {"measurement": "number of colonies", "setting": "[3]", "result": "reduced the number of colonies in all the tested cell lines in a dose-dependent manner"}]}
